Counter-ions that a name gives are not always drawn. Like-named read-outs stand apart in the source and are kept apart here.
Conditions: 60±2° C., 75±5% RH; for Relative amount compared to the initial amount: HPLC condition A; for Amount of hydrolyzed impurities (formula (III)) of an acid addition salt of clopidogrel: HPLC condition B; for Amount of levorotatory isomers (formula (IV)) of an acid addition salt of clopidogrel: HPLC condition C
Method: Condition A: For the measurement of an assay of an acid addition salt of clopidogrel
• Column: Kromasil C18, 5 μm (250 mm×4.6 mm) • Detector: 220 nm • Flow rate: 1.5 ml/minute • Mobile phase: Na2HPO4—NaH2PO4 buffer solution: THF: CH3CN=5:2:3 (v/v) Condition B: For the measurement of an amount of hydrolyzed impurities of an acid addition salt of clopidogrel • Column: Capcellpak C18 MG, 5 μm (250 mm×4.6 mm) • Detector: 210 nm • Flow rate: 1.0 ml/min. • Mobile phase: KH2PO4 buffer solution/CH3CN (70/30): KH2PO4 buffer solution/CH3CN (30/70)=0:100 100:0 (v/v, gradient elution) Condition C: For the measurement of an optical purity of an acid addition salt of clopidogrel • Column: Chiralpak AD, 5 μm (250 mm×4.6 mm) • Detector: 210 nm • Flow rate: 1.0 ml/min. • Mobile phase: n-hexane: isopropanol=90:10 (v/v)
The assay of the acid addition salt of clopidogrel was measured using HPLC condition A, the amount of hydrolyzed impurities of the acid addition salt of clopidogrel was measured using HPLC condition B, the optical purity of the acid addition salt of clopidogrel (i.e., the amount of the levorotatory isomers) was measured using the HPLC condition C, and the water content of the acid addition salt of clopidogrel was measured with a Karl-Fisher titrator.

Compound | Relative amount compared to the initial amount (0 day) | Amount of hydrolyzed impurities (formula (III)) of an acid addition salt of clopidogrel (0 day) | Amount of levorotatory isomers (formula (IV)) of an acid addition salt of clopidogrel (0 day) | Relative amount compared to the initial amount (7 days) | Amount of levorotatory isomers (formula (IV)) of an acid addition salt of clopidogrel (7 days) | Relative amount compared to the initial amount (14 days) | Amount of hydrolyzed impurities (formula (III)) of an acid addition salt of clopidogrel (14 days) | Amount of levorotatory isomers (formula (IV)) of an acid addition salt of clopidogrel (14 days) | Relative amount compared to the initial amount (21 days) | Amount of levorotatory isomers (formula (IV)) of an acid addition salt of clopidogrel (21 days) | Relative amount compared to the initial amount (28 days) | Amount of hydrolyzed impurities (formula (III)) of an acid addition salt of clopidogrel (28 days) | Amount of levorotatory isomers (formula (IV)) of an acid addition salt of clopidogrel (28 days) | Relative amount compared to the initial amount (35 days) | Amount of hydrolyzed impurities (formula (III)) of an acid addition salt of clopidogrel (35 days) | Amount of levorotatory isomers (formula (IV)) of an acid addition salt of clopidogrel (35 days) | other results
COC(=O)[C@H](c1ccccc1Cl)N1CCc2sccc2C1 [Hydrogen sulfate, Clopidogrel Hydrogen Sulfate, reference compound] | 100% | 0.0% | 0.35% | 99.6% | 0.35% | 98.7% | 0.63% | 0.40% | 97.7% | 0.49% | 94.4% | 2.0% | 0.67% | 87.0% | 4.8% | 1.08% | –
COC(=O)[C@H](c1ccccc1Cl)N1CCc2sccc2C1 [2-Naphthalenesulfonate, Clopidogrel 2-naphthalenesulfonate] | 100% | 0.0% | 0.10% | 99.1% | 0.10% | 99.3% | 0.12% | 0.10% | 99.1% | 0.10% | 99.0% | 0.16% | 0.11% | 99.2% | 0.18% | 0.13% | –
COC(=O)[C@H](c1ccccc1Cl)N1CCc2sccc2C1 [1,5-Naphthalenedisulfonate monohydrate, Clopidogrel 1,5-naphthalenedisulfonate Monohydrate] | 100% | 0.0% | – | – | – | – | – | – | – | – | – | – | – | – | – | – | Amount of levorotatory isomers (formula (IV)) of an acid addition salt of clopidogrel (0 day, Monohydrate): 0.10%; Relative amount compared to the initial amount (7 days, Monohydrate): 100%; Amount of levorotatory isomers (formula (IV)) of an acid addition salt of clopidogrel (7 days, Monohydrate): 0.10%; Relative amount compared to the initial amount (14 days, Monohydrate): 100%; Amount of hydrolyzed impurities (formula (III)) of an acid addition salt of clopidogrel (14 days, Monohydrate): 0.02%; Amount of levorotatory isomers (formula (IV)) of an acid addition salt of clopidogrel (14 days, Monohydrate): 0.10%; Relative amount compared to the initial amount (21 days, Monohydrate): 100%; Amount of levorotatory isomers (formula (IV)) of an acid addition salt of clopidogrel (21 days, Monohydrate): 0.09%; Relative amount compared to the initial amount (28 days, Monohydrate): 99.9%; Amount of hydrolyzed impurities (formula (III)) of an acid addition salt of clopidogrel (28 days, Monohydrate): 0.04%; Amount of levorotatory isomers (formula (IV)) of an acid addition salt of clopidogrel (28 days, Monohydrate): 0.11%; Relative amount compared to the initial amount (35 days, Monohydrate): 99.9%; Amount of hydrolyzed impurities (formula (III)) of an acid addition salt of clopidogrel (35 days, Monohydrate): 0.05%; Amount of levorotatory isomers (formula (IV)) of an acid addition salt of clopidogrel (35 days, Monohydrate): 0.10%

Reference: US7470707B2, “Crystalline monohydrate clopidogrel naphthalenedisulfonate and process of preparation” (Hanmi Pharm. Co., Ltd, priority 2004, dated 2008)
